The source of these data is patent publication US8912184B1, “Therapeutic and diagnostic methods” (Alzheimer's Institute of America, Inc., priority 2010, dated 2014).

Where only a bound is given, the exact number is not on record here.

The subject of series [1] is HCT116 cells. As to the kind of experiment: 72 Hour HCT116 Cytotoxicity Assay (CellTiter-Glo). The class given is cell-based. The note with it: Homo sapiens, HCT-116, 72 h, HCT116 cells, 72 h, read-out: IC50 cytotoxicity. Background: ATP-based viability assays read luminescence as a measure of living cells.
Description: HCT116 cells were seeded in 96 well plates (Greiner Bio-One, Monroe, N.C.) and allowed to settle overnight. Test compound dissolved in dimethyl sulfoxide (DMSO) was added and drug incubation proceeded for 72 hours. […] After 72 hour, 50 μL of CellTiter-Glo Luminescent Cell Viability Assay reagent (Promega Corporation, Madison, Wis.) was added to cells in 200 μL of cellular media. After a proscribed incubation period, luminescence was measured using a TopCount NXT plate reader (PerkinElmer, Waltham, Mass.).
Series [2] is classed as in vivo. The following applies: mice, single oral dose 300 mg/kg, by 5 days.
In series [3] the test system is MIAPaCa-2 xenograft tumors. In words: MIAPaCa-2 human pancreatic carcinoma murine xenograft, tumor growth and survival. The class given is in vivo, mice. The following applies: for animals having tumor volumes >1500 mm3 at end of study: Day 40. How it is done: Exemplary Compound A was tested for its ability to suppress tumor growth, and promote survival in MIAPaCa-2 human pancreatic carcinoma (i.e., a Naprt-deficient cancer) murine xenograft models (FIG. 9). In these experiments, MIAPaCa-2 tumor-bearing mice with a median tumor volume of 202 mm^3 were orally dosed on days 1, 10 and 19 with either vehicle, 75 mg/kg Exemplary Compound A or 200 mg/kg Exemplary Compound A in combination with 400 mg/kg NA, or were orally dosed daily with 400 mg/kg NA for 21 days. See key below FIG. 9(b). NA was always administered one hour prior to dosing with Exemplary Compound A or vehicle.
On the technique in general: In xenograft studies the graft and the host belong to different species.

Series [4] concerns HCT116 cells. As to the kind of experiment: ATP measured in cellular lysates (ATP depletion) of HCT116 cells. The class given is cell-based. The note with it: Homo sapiens, read-out: potency (IC50) for ATP depletion. How it is done: NAD in cells was measured by modification of existing protocols (Lee, H. I., et al. Exp. Mol. Med. 40, 246-253 (2008)). MCF-10A cells stably transduced with the PIK3CA(H1047R) oncogene were seeded in 96 well plates at very high density (100% confluence) and allowed to settle overnight. Test compound dissolved in DMSO was added and drug incubation proceeded for 20-24 hours. Cells were washed with PBS and harvested by incubation in 25 μL 0.5 M perchloric acid (HClO4) followed by vigorous shaking at 4° C. for 15 minutes. Acidic cell lysates were neutralized by adding 8 μL of 2 M KOH/0.2 M K2HPO4. The entire lysate volume was transferred to a centrifuge plate and spun at 3000 rpm in a table top centrifuge (4° C.) for 5 minutes to clear the precipitate. […] Reactions were allowed to proceed for 1 hour at room temperature, after which time fluorescence was read on a Gemini plate reader as described above.
For ATP measurement, 5 μL of cleared lysate was added to 195 μL PBS. 50 μL CellTiter-Glo reagent (Promega Corporation, Madison, Wis.) was added and ATP measured as described in the cytotoxicity assay methods.
Kinetics of NAD and ATP depletion in Naprt1-proficient HCT116 cells induced by Exemplary Compound A was studied using the assays described above. HCT116 cells were treated with 8.5 nM Exemplary Compound A and cellular NAD and ATP were measured at various times. […]

With `O=C(NCc1cccnc1)Nc1ccc(COc2ccccc2-c2ccccc2)cc1` [Exemplary Compound A, 1-{4-[(biphenyl-2-yloxy)methyl]phenyl}-3-(pyridin-3-ylmethyl)urea], the 50% inhibitory concentration (IC50) (as a rule, the midpoint of a concentration-inhibition curve) is 0.26 nM with HCT116 cells [1] (absence of 10 μM NA); above 10000 nM with HCT116 cells [1] (presence of 10 μM NA); 33 nM in the series on HCT116 cells [4] (HCT-116, 0.5 h, exposure 30 min); around 0.6 nM in the series on HCT116 cells [4] (HCT-116, after 48 h exposure). The lethality result in series [2] is on record as “completely lethal”. In addition, the survival result in series [3] (200 mg/kg with 400 mg/kg NA) was “significantly increased survival”. Besides, the “animals having tumor volumes >1500 mm3 at end of study” value in series [3] (200 mg/kg with 400 mg/kg NA) is “two”; in series [3] (other cohorts (incl. 75 mg/kg)) it was “eight”. Moreover, the “tumor growth inhibition (TGI) relative to vehicle” value in series [3] (oral 75 mg/kg days 1, 10, 19, day 19) is reported as 53%. For the same compound, in series [3] (oral 200 mg/kg with 400 mg/kg NA days 1, 10, 19, day 19), the “tumor growth inhibition (TGI)” value is reported as 88%.
